Data from patent US9085550B2, “Ligands for estrogen related receptors and methods for synthesis of said ligands” (CITY OF HOPE, priority 2005, dated 2015).

Experiments:
human ERα = molecular target: T1, human ERα (Homo sapiens, UniProt P03372); test: ERE-TK-luc reporter transactivation assay in CV-1 cells, full-length hERa; type: cell-based
T1 construct: Human ERα and ERβ were examined as full-length proteins using an estrogen receptor responsive reporter construct; expressed in transfected cells; host or cells: CV-1
T1 sequence (P03372 1-595): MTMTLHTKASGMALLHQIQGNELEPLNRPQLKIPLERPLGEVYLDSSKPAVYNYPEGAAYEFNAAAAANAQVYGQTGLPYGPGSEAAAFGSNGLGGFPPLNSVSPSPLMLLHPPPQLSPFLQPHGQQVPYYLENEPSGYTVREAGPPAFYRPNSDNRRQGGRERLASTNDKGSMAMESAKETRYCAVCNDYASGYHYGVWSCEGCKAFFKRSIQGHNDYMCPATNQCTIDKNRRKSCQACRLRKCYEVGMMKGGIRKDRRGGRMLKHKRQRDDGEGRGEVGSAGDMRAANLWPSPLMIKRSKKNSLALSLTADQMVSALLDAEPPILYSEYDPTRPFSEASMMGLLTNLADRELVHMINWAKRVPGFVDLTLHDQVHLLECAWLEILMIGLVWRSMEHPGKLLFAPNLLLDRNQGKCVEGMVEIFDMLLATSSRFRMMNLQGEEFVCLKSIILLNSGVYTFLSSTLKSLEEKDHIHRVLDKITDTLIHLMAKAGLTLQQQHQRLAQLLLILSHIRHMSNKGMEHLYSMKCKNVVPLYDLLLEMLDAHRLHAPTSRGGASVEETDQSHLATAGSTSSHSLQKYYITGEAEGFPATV
Method: (§1) Human ERα and ERβ were examined as full-length proteins using an estrogen receptor responsive reporter construct.
(§2) Suitable reporter gene constructs are well known to skilled workers in the fields of biochemistry and molecular biology. […] Other vectors known in the art can be used in the methods of the present invention.
(§3) CV-1 cells for the activation assays were grown in Dulbecco's modified Eagle's medium supplemented with 10% resin charcoal-stripped fetal bovine serum, 50 U/ml penicillin G and 50 μg/ml streptomycin sulfate (DMEM-FBS) at 37° C. in 5% CO2. One day prior to transfection, cells were plated to 50-80% confluence using phenol red free DMEM-FBS.

[1] = molecular target: T2, GAL-mERRg (mouse ERRγ ligand binding domain fused to GAL4 DNA binding domain) (Mus musculus, UniProt P62509); test: GAL4 reporter transactivation assay in CV-1 cells, GAL-mERRg; type: cell-based; conditions: for Fold activation, GAL-mERRg + PGC-1a / Fold activation, GAL-mERRg: CV-1; for Fold activation, GAL-mERRg + PGC-1a: reporter 0.42:vector 0.00875:PGC-1a 0.035; for Fold activation, GAL-mERRg: reporter 0.42:vector 0.00875, no PGC-1a
T2 construct: expressed in transfected cells; host or cells: CV-1
T2 sequence (P62509 233-457 limits assumed): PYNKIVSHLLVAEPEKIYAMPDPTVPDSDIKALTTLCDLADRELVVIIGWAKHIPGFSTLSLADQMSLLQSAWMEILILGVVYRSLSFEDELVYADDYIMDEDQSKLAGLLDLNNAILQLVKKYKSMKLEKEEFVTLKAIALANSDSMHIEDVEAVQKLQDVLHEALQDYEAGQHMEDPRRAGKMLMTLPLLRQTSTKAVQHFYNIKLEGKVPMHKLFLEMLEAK

[2] = molecular target: T3, GAL-L-hERRb (human ERRβ ligand binding domain fused to GAL4 DNA binding domain) (Homo sapiens, UniProt O95718); test: GAL4 reporter transactivation assay in CV-1 cells, GAL-L-hERRb; type: cell-based; conditions: for Fold activation, GAL-L-hERRb + PGC-1a / Fold activation, GAL-L-hERRb: CV-1; for Fold activation, GAL-L-hERRb + PGC-1a: reporter 0.42:vector 0.00875:PGC-1a 0.035; for Fold activation, GAL-L-hERRb: reporter 0.42:vector 0.00875, no PGC-1a
T3 construct: expressed in transfected cells; host or cells: CV-1
T3 sequence (O95718 208-432 limits assumed): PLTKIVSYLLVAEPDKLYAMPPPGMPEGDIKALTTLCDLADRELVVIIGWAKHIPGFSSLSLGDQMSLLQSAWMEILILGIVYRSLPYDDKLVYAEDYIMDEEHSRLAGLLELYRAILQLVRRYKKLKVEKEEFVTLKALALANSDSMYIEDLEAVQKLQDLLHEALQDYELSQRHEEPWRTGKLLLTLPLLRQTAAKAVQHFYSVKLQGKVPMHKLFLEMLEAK

[3] = molecular target: T4, GAL-hERRa (human ERRα ligand binding domain fused to GAL4 DNA binding domain) (Homo sapiens, UniProt P11474); test: GAL4 reporter transactivation assay in CV-1 cells, GAL-hERRa; type: cell-based; conditions: for Fold activation, GAL-hERRa + PGC-1a / Fold activation, GAL-hERRa: CV-1; for Fold activation, GAL-hERRa + PGC-1a: reporter 0.42:vector 0.00875:PGC-1a 0.035; for Fold activation, GAL-hERRa: reporter 0.42:vector 0.00875, no PGC-1a
T4 construct: expressed in transfected cells; host or cells: CV-1
T4 sequence (P11474 193-421 limits assumed): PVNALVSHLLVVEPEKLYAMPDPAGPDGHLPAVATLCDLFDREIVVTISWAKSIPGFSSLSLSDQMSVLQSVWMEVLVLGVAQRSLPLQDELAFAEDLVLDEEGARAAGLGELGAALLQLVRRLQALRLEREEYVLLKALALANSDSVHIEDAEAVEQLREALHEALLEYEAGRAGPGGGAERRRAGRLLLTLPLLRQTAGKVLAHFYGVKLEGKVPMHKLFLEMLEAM

[4] = molecular target: T5, HRHN-GAL (yeast GAL4 DNA binding domain without receptor sequences) (Saccharomyces cerevisiae, UniProt P04386); test: GAL4 reporter transactivation assay in CV-1 cells, control vector without receptor; type: cell-based, monkey; conditions: for Fold activation, HRHN-GAL: reporter 0.42:vector 0.00875, no PGC-1a
T5 construct: expressed in transfected cells; host or cells: CV-1

human ERβ = molecular target: T6, human ERβ (Homo sapiens, UniProt Q92731); test: ERE-TK-luc reporter transactivation assay in CV-1 cells, full-length hERb; type: cell-based
T6 construct: Human ERα and ERβ were examined as full-length proteins using an estrogen receptor responsive reporter construct; expressed in transfected cells; host or cells: CV-1
Method: as §1, §2, §3

T5 sequence (P04386 1-147): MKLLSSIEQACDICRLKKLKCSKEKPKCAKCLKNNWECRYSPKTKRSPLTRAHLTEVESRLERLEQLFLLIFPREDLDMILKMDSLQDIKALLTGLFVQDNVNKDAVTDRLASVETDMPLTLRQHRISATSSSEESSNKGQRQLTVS
T6 sequence (Q92731 whole entry): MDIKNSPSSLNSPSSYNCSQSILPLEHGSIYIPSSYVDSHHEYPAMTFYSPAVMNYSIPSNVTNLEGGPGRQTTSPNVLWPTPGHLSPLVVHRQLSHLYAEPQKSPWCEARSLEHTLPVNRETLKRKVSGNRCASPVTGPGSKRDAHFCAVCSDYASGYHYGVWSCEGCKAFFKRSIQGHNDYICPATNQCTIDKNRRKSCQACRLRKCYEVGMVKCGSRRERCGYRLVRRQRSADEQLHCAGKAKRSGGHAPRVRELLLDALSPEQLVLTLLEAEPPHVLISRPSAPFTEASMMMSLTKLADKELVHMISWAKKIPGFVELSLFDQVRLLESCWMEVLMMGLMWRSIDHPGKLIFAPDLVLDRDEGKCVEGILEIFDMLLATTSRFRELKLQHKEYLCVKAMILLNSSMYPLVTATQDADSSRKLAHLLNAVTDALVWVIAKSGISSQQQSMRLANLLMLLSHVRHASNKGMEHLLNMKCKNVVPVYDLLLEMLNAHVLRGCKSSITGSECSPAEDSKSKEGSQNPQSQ

O=C(NN=Cc1ccccc1)c1ccc(O)cc1 [DY162, 4-Hydroxy-benzoic acid benzylidene-hydrazide] was tested, and the “Fold Activation, ERE-TK-luc, hERa” value (human ERα; Table 7, CV-1, drug conc 30 μM) was 1.74 fold, the “Activation of ERa” value (human ERα; specificity for ERRs) was “do not activate” and the “Fold activation, GAL-mERRg + PGC-1a” value ([1]; 0.3 μM) was 0.92 fold. The “Fold activation, GAL-mERRg + PGC-1a” value ([1]; 1 μM) was 1.06 fold, the “Fold activation, GAL-mERRg + PGC-1a” value ([1]; 3 μM (first 3 μM column)) was 1.53 fold and the “Fold activation, GAL-mERRg + PGC-1a” value ([1]; 3 μM (second 3 μM column)) was 1.63 fold. For the same compound, the “Fold activation, GAL-mERRg + PGC-1a” value ([1]; 10 μM) was 2.45 fold, the “Fold activation, GAL-mERRg + PGC-1a” value ([1]; 30 μM) was 2.46 fold and the “Fold activation, GAL-mERRg” value ([1]; 0.3 μM) was 1.04 fold. For the same compound, the “Fold activation, GAL-mERRg” value ([1]; 1 μM) was 0.89 fold, the “Fold activation, GAL-mERRg” value ([1]; 3 μM (first 3 μM column)) was 0.92 fold and the “Fold activation, GAL-mERRg” value ([1]; 3 μM (second 3 μM column)) was 1.40 fold. For the same compound, the “Fold activation, GAL-mERRg” value ([1]; 10 μM) was 1.88 fold, the “Fold activation, GAL-mERRg” value ([1]; 30 μM) was 1.59 fold and the “Activation of ERRγ” value ([1]; in the presence of PGC-1a) was “can activate”. For the same compound, the “Fold activation, GAL-L-hERRb + PGC-1a” value ([2]; 0.3 μM) was 0.77 fold, the “Fold activation, GAL-L-hERRb + PGC-1a” value ([2]; 1 μM) was 0.78 fold and the “Fold activation, GAL-L-hERRb + PGC-1a” value ([2]; 3 μM (first 3 μM column)) was 1.06 fold. For the same compound, the “Fold activation, GAL-L-hERRb + PGC-1a” value ([2]; 3 μM (second 3 μM column)) was 1.65 fold, the “Fold activation, GAL-L-hERRb + PGC-1a” value ([2]; 10 μM) was 1.79 fold and the “Fold activation, GAL-L-hERRb + PGC-1a” value ([2]; 30 μM) was 2.61 fold. For the same compound, the “Fold activation, GAL-L-hERRb” value ([2]; 0.3 μM) was 1.09 fold, the “Fold activation, GAL-L-hERRb” value ([2]; 1 μM) was 1.05 fold and the “Fold activation, GAL-L-hERRb” value ([2]; 3 μM (first 3 μM column)) was 0.87 fold. For the same compound, the “Fold activation, GAL-L-hERRb” value ([2]; 3 μM (second 3 μM column)) was 0.96 fold, the “Fold activation, GAL-L-hERRb” value ([2]; 10 μM) was 1.57 fold and the “Fold activation, GAL-L-hERRb” value ([2]; 30 μM) was 1.48 fold. For the same compound, the “Activation of ERRβ” value ([2]; in the presence of PGC-1a) was “can activate”, the “Fold activation, GAL-hERRa + PGC-1a” value ([3]; 0.3 μM) was 1.26 fold and the “Fold activation, GAL-hERRa + PGC-1a” value ([3]; 1 μM) was 1.22 fold. For the same compound, the “Fold activation, GAL-hERRa + PGC-1a” value ([3]; 3 μM (first 3 μM column)) was 2.11 fold, the “Fold activation, GAL-hERRa + PGC-1a” value ([3]; 3 μM (second 3 μM column)) was 1.93 fold and the “Fold activation, GAL-hERRa + PGC-1a” value ([3]; 10 μM) was 2.18 fold. The “Fold activation, GAL-hERRa + PGC-1a” value ([3]; 30 μM) was 2.36 fold, the “Fold activation, GAL-hERRa” value ([3]; 0.3 μM) was 0.77 fold and the “Fold activation, GAL-hERRa” value ([3]; 1 μM) was 0.86 fold. The “Fold activation, GAL-hERRa” value ([3]; 3 μM (first 3 μM column)) was 0.89 fold, the “Fold activation, GAL-hERRa” value ([3]; 3 μM (second 3 μM column)) was 1.51 fold and the “Fold activation, GAL-hERRa” value ([3]; 10 μM) was 1.82 fold. The “Fold activation, GAL-hERRa” value ([3]; 30 μM) was 2.03 fold, the “Activation of ERRα” value ([3]; in the presence of PGC-1a) was “can activate” and the “Fold activation, HRHN-GAL” value ([4]; 0.3 μM) was 1.14 fold. The “Fold activation, HRHN-GAL” value ([4]; 1 μM) was 1.07 fold, the “Fold activation, HRHN-GAL” value ([4]; 3 μM (first 3 μM column)) was 1.02 fold and the “Fold activation, HRHN-GAL” value ([4]; 3 μM (second 3 μM column)) was 1.12 fold. The “Fold activation, HRHN-GAL” value ([4]; 10 μM) was 1.26 fold, the “Fold activation, HRHN-GAL” value ([4]; 30 μM) was 1.25 fold and the “Fold activation, HRHN-GAL + PGC-1a” value ([4]; reporter 0.42:vector 0.00875:PGC-1a 0.035, 0.3 μM) was 1.26 fold. For the same compound, the “Fold activation, HRHN-GAL + PGC-1a” value ([4]; reporter 0.42:vector 0.00875:PGC-1a 0.035, 1 μM) was 1.17 fold, the “Fold activation, HRHN-GAL + PGC-1a” value ([4]; reporter 0.42:vector 0.00875:PGC-1a 0.035, 3 μM (first 3 μM column)) was 1.13 fold and the “Fold activation, HRHN-GAL + PGC-1a” value ([4]; reporter 0.42:vector 0.00875:PGC-1a 0.035, 3 μM (second 3 μM column)) was 1.97 fold. For the same compound, the “Fold activation, HRHN-GAL + PGC-1a” value ([4]; reporter 0.42:vector 0.00875:PGC-1a 0.035, 10 μM) was 1.68 fold, the “Fold activation, HRHN-GAL + PGC-1a” value ([4]; reporter 0.42:vector 0.00875:PGC-1a 0.035, 30 μM) was 1.93 fold and the “Fold Activation, ERE-TK-luc, hERb” value (human ERβ; Table 7, CV-1, drug conc 30 μM) was 1.74 fold. For the same compound, the “Activation of ERb” value (human ERβ; specificity for ERRs) was “do not activate”.
